Data as given in PubChem BioAssay AID330 (DTP/NCI, 2004).
“And” between values parts separate entries of the source, which are not always exact repeats. Equal entries are not always repeated. Inconclusive results and toxic doses are left out. How the source made its calls: active means survival T/C of 150% or more; inactive means T/C below 125% in these data. Square brackets hold non-standard residues; d marks the D form. Peptide text beside a SMILES is read from it. * marks the point of attachment. ξ: configuration not given here. Cbz = O=C(OCc1ccccc1)*; ξI = CCC(C)C(N)C(=O)O

System: P388 leukemia ip, CD2F1 mice, survival T/C
Assay: NCI In Vivo Anticancer Drug Screen. Data for tumor model P388 Leukemia (intraperitoneal) in CD2F1 (CDF1) mice
Details: endpoint: median survival time, higher = longer survival
In short: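 Mice carrying the transplanted tumor received test compound or vehicle. Survival was recorded in each group, and the value is the treated-group measurement divided by that of the vehicle-treated control group.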

[1] = dose: 50.0 mg/kg/injection, schedule: Q01DX009 (ip), vehicle: saline with Tween-80
[2] = dose: 100.0 mg/kg/injection, schedule: Q01DX009 (ip), vehicle: saline with Tween-80
[3] = dose: 200.0 mg/kg/injection, schedule: Q01DX009 (ip), vehicle: saline with Tween-80
[4] = dose: 50.0 mg/kg/injection, schedule: Q01DX009 (ip), vehicle: saline
[5] = dose: 100.0 mg/kg/injection, schedule: Q01DX009 (ip), vehicle: saline
[6] = dose: 200.0 mg/kg/injection, schedule: Q01DX009 (ip), vehicle: saline
[7] = dose: 12.5 mg/kg/injection, schedule: Q01DX009 (ip), vehicle: saline with Tween-80
[8] = dose: 25.0 mg/kg/injection, schedule: Q01DX009 (ip), vehicle: saline with Tween-80
[9] = dose: 60.0 mg/kg/injection, schedule: Q01DX005 (ip), vehicle: saline with Tween-80
[10] = dose: 120.0 mg/kg/injection, schedule: Q01DX005 (ip), vehicle: saline with Tween-80
[11] = dose: 240.0 mg/kg/injection, schedule: Q01DX005 (ip), vehicle: saline with Tween-80

Measured: T/C

CN1CCN(c2nc3cccnc3s2)CC1
inactive: dose: 25.0 mg/kg/injection, schedule: Q04DX003 (ip), vehicle: saline with Tween-80 106 % of control | dose: 50.0 mg/kg/injection, schedule: Q04DX003 (ip), vehicle: saline with Tween-80 101 % of control | dose: 100.0 mg/kg/injection, schedule: Q04DX003 (ip), vehicle: saline with Tween-80 100 % of control

CC(=O)N(O)c1ccccc1-c1ccccc1
inactive: [1] 103 % of control | [2] 99 % of control | [3] 97 % of control

NC(=O)c1ccccc1NC(=O)c1ccccc1C(=O)O
inactive: [1] 100 % of control and 101 % of control | [2] 99 % of control and 103 % of control | [3] 101 % of control and 103 % of control | dose: 400.0 mg/kg/injection, schedule: Q01DX009 (ip), vehicle: saline with Tween-80 100 % of control and 101 % of control

CCC(C)C(NC(=O)OCc1ccccc1)C(=O)NCC(=O)O (stereo unspecified) (Cbz-[ξI]-Gly-OH)
inactive: dose: 50.0 mg/kg/injection, schedule: Q01DX005 (ip), vehicle: Klucel (hydroxypropylcellulose) (HPC) 97 % of control | dose: 100.0 mg/kg/injection, schedule: Q01DX005 (ip), vehicle: Klucel (hydroxypropylcellulose) (HPC) 97 % of control | dose: 200.0 mg/kg/injection, schedule: Q01DX005 (ip), vehicle: Klucel (hydroxypropylcellulose) (HPC) 90 % of control

C1COCCNCCOCCOCCN1
inactive: dose: 50.0 mg/kg/injection, schedule: Q01DX005 (ip), vehicle: saline 95 % of control | dose: 100.0 mg/kg/injection, schedule: Q01DX005 (ip), vehicle: saline 106 % of control | dose: 200.0 mg/kg/injection, schedule: Q01DX005 (ip), vehicle: saline 95 % of control

COC(=O)CS(=O)(=O)CCCCS(=O)(=O)CC(=O)OC
inactive: [4] 99 % of control | [5] 99 % of control | [6] 103 % of control

COc1cc2cc[n+]3c(c2cc1OC)-c1c2cc(OC)c(OC)cc2cc[n+]1CC3
inactive: [7] 100 % of control | [8] 97 % of control

CN(C)CCCO[Si](C)(c1ccccc1)c1ccc(F)cc1 (stereo unspecified)
inactive: [7] 105 % of control | [8] 101 % of control | [1] 110 % of control and 97 % of control | [2] 86 % of control

O=C(Oc1ccc[nH]c1=O)C12CC3CC(CC(C3)C1)C2
inactive: [4] 101 % of control | [5] 100 % of control | [6] 98 % of control and 94 % of control | dose: 400.0 mg/kg/injection, schedule: Q01DX009 (ip), vehicle: saline 99 % of control and 93 % of control

N/C(=N\O)N(c1ccccc1)c1ccccc1
inactive: [8] 97 % of control | [1] 98 % of control | [2] 99 % of control

S=C(/N=N/c1[nH]c2ccccc2c1NNC(=S)NC12CC3CC(CC(C3)C1)C2)NC12CC3CC(CC(C3)C1)C2
inactive: dose: 30.0 mg/kg/injection, schedule: Q01DX005 (ip), vehicle: saline with Tween-80 96 % of control | [9] 96 % of control | [10] 87 % of control | [11] 90 % of control

COC(=O)C1(C(=O)OC)C2C=CCC21 (stereo unspecified)
inactive: [1] 96 % of control | [2] 102 % of control | [3] 104 % of control

CC(O)C(C)(C)S(=O)(=O)CCCc1ccccc1 (stereo unspecified)
inactive: [9] 107 % of control | [10] 107 % of control | [11] 108 % of control

C(CSC1=NCCN1)CSC1=NCCN1
inactive: dose: 25.0 mg/kg/injection, schedule: Q01DX009 (ip), vehicle: saline 120 % of control | [4] 117 % of control

Cc1cc(=O)oc2cc(NC(=O)C(CCCN=C(N)N)NC(=O)OCc3ccccc3)ccc12 (stereo unspecified)
inactive: dose: 50.0 mg/kg/injection, schedule: Q01DX005 (ip), vehicle: saline with Tween-80 97 % of control | dose: 100.0 mg/kg/injection, schedule: Q01DX005 (ip), vehicle: saline with Tween-80 98 % of control | dose: 200.0 mg/kg/injection, schedule: Q01DX005 (ip), vehicle: saline with Tween-80 94 % of control

Cc1cc[n+](C2C(=O)c3ccccc3C(=O)C2Nc2cc(Cl)ccc2Cl)cc1 (stereo unspecified)
inactive: [9] 106 % of control | [10] 108 % of control | [11] 105 % of control

CC(C)(C)N=C(Cc1ccccc1)N1CCCCC1
inactive: [1] 100 % of control | [2] 96 % of control

CCCCC[C@@H]1CCCC2C1CC[C@@H](CCCCCI)N2C(=O)OCC(Cl)(Cl)Cl (stereo partly specified)
inactive: dose: 100.0 mg/kg/injection, schedule: Q04DX002 (ip), vehicle: saline with Tween-80 100 % of control | dose: 200.0 mg/kg/injection, schedule: Q04DX002 (ip), vehicle: saline with Tween-80 100 % of control | dose: 400.0 mg/kg/injection, schedule: Q04DX002 (ip), vehicle: saline with Tween-80 105 % of control

NC(CS)C(=O)NCC(=O)O (stereo unspecified)
inactive: dose: 50.0 mg/kg/injection, schedule: Q01DX009 (ip), vehicle: distilled water + alcohol 109 % of control | dose: 100.0 mg/kg/injection, schedule: Q01DX009 (ip), vehicle: distilled water + alcohol 98 % of control | dose: 200.0 mg/kg/injection, schedule: Q01DX009 (ip), vehicle: distilled water + alcohol 92 % of control

COC(=O)C1(C(=O)OC)OC(c2ccc(OC)cc2)[C@H]2C(=O)N(C)C(=O)[C@H]21 (stereo partly specified)
inactive: dose: 60.0 mg/kg/injection, schedule: Q01DX005 (ip), vehicle: Klucel (hydroxypropylcellulose) (HPC) 92 % of control | dose: 120.0 mg/kg/injection, schedule: Q01DX005 (ip), vehicle: Klucel (hydroxypropylcellulose) (HPC) 92 % of control | dose: 240.0 mg/kg/injection, schedule: Q01DX005 (ip), vehicle: Klucel (hydroxypropylcellulose) (HPC) 89 % of control
